# Measurements taken from patent US10131744B2, “Antimicrobial polyamide compositions and mastitis treatment” (priority 2013, dated 2018).
# Where two headings read alike, the source gives them in different places.
# What was measured:
# Format in all cases: cell-based
# Histophilus somni = test: MIC in broth against Histophilus somni
# Method: (§1) The antimicrobial efficacy of twenty-five antimicrobial polymers (and Erythromycin) was evaluated using an MIC assay. For each study, a doubling dilution concentration of each antimicrobial polymer was prepared at 2× the final concentration range (0.12 to 16 μg/mL), and 100 μL of the API-null formulation was dispensed into the negative control wells. Overall, the antimicrobial polymer-containing compositions performed comparably well, or better, against the pathogens, as compared to Erythromycin (ERY).
# Streptococcus canis = test: MIC in broth against Streptococcus canis; parameters: unit not given beside the values
# Method: as §1
# Escherichia coli = test: MIC in broth against Escherichia coli
# Method: as §1
# Enterobacter species = test: MIC in broth against Enterobacter species
# Method: as §1
# Mycoplasma bovis = test: organism not typed
# Mannheimia haemolytica = test: MIC in broth against Mannheimia haemolytica
# Method: as §1
# Serratia marcescens = test: MIC in broth against Serratia marcescens; parameters: unit not given beside the values
# Method: as §1
# [1] = tested on: Staphylococcus pseudintermedius (including MRSP); test: MIC in broth against Staphylococcus pseudintermedius (including MRSP); parameters: unit not given beside the values
# Method: as §1
# Streptococcus uberis = test: MIC in broth against Streptococcus uberis
# Method: as §1
# [2] = tested on: Actinobacillus pleuropneumoniae; test: MIC in broth against Actinobacillus pleuropneumoniae
# Method: as §1
# [3] = tested on: Staphylococcus aureus (including MRSA); test: MIC in broth against Staphylococcus aureus (including MRSA); parameters: MIC against Staphylococcus aureus including MRSA: unit: μg/mL
# Method: as §1
structure (smiles),measurement,setting,value
"CC[C@H]1OC(=O)[C@H](C)[C@@H](O[C@H]2C[C@@](C)(OC)[C@@H](O)[C@H](C)O2)[C@H](C)[C@@H](O[C@@H]2O[C@H](C)C[C@H](N(C)C)[C@H]2O)[C@](C)(O)C[C@@H](C)C(=O)[C@H](C)[C@@H](O)[C@]1(C)O [Ery, Erythromycin]",MIC,"Histophilus somni; H. somni (H-15) ATTC 700025, read-out: MIC",1 µg/mL
same,MIC,"Histophilus somni; isolates # 238-240, 243, 246 (BRD), read-out: MIC against Histophilus somni",> 8 µg/mL
same,MIC,"Histophilus somni; isolates # 241, 247 (BRD), read-out: MIC against Histophilus somni",0.5 µg/mL
same,MIC,"Histophilus somni; isolates # 242, 244, 245 (BRD), read-out: MIC against Histophilus somni",1 µg/mL
same,MIC against Streptococcus canis,Streptococcus canis; isolate # 198,0.06
same,MIC against Streptococcus canis,Streptococcus canis; isolate # 199,0.06
same,MIC against Streptococcus canis,Streptococcus canis; isolate # 200,0.12
same,MIC against Streptococcus canis,Streptococcus canis; isolate # 201,0.06
same,MIC against Streptococcus canis,Streptococcus canis; isolate # 202,0.06
same,MIC against Streptococcus canis,Streptococcus canis; isolate # 203,0.06
same,MIC against Streptococcus canis,Streptococcus canis; isolate # 204,0.06
same,MIC against Streptococcus canis,Streptococcus canis; isolate # 205,0.06
same,MIC against Streptococcus canis,Streptococcus canis; isolate # 206,0.06
same,MIC against Streptococcus canis,Streptococcus canis; isolate # 207,0.06
same,MIC,Escherichia coli; isolate # 1 (mastitis),2 µg/mL
same,MIC,Escherichia coli; isolate # 2 (mastitis),> 8 µg/mL
same,MIC,Escherichia coli; isolate # 3 (mastitis),> 8 µg/mL
same,MIC,Escherichia coli; isolate # 4 (mastitis),> 8 µg/mL
same,MIC,Escherichia coli; isolate # 5 (mastitis),> 8 µg/mL
same,MIC,Escherichia coli; isolate # 6 (mastitis),> 8 µg/mL
same,MIC,Escherichia coli; isolate # 7 (mastitis),> 8 µg/mL
same,MIC,Escherichia coli; isolate # 8 (mastitis),> 8 µg/mL
same,MIC,Escherichia coli; isolate # 9 (mastitis),> 8 µg/mL
same,MIC,Escherichia coli; isolate # 10 (mastitis),> 8 µg/mL
same,MIC,Escherichia coli; isolate # 11 (canine wound),> 8 µg/mL
same,MIC,Escherichia coli; isolate # 12 (canine wound),> 8 µg/mL
same,MIC,Escherichia coli; isolate # 13 (canine wound),> 8 µg/mL
same,MIC,Escherichia coli; isolate # 14 (canine wound),> 8 µg/mL
same,MIC,Escherichia coli; isolate # 15 (canine wound),> 8 µg/mL
same,MIC,Escherichia coli; isolate # 16 (canine wound),> 8 µg/mL
same,MIC,Escherichia coli; isolate # 17 (canine wound),> 8 µg/mL
same,MIC,Escherichia coli; isolate # 18 (canine wound),> 8 µg/mL
same,MIC,Escherichia coli; isolate # 19 (canine wound),> 8 µg/mL
same,MIC,Escherichia coli; isolate # 20 (canine wound),> 8 µg/mL
same,MIC,"Enterobacter species; Enterobacter, isolate # 26 (mastitis)",> 8 µg/mL
same,MIC against Enterobacter species,Enterobacter species; isolate # 21 (mastitis),>8 µg/mL
same,MIC against Enterobacter species,Enterobacter species; isolate # 22 (mastitis),>8 µg/mL
same,MIC against Enterobacter species,Enterobacter species; isolate # 23 (mastitis),>8 µg/mL
same,MIC against Enterobacter species,Enterobacter species; isolate # 24 (mastitis),>8 µg/mL
same,MIC against Enterobacter species,Enterobacter species; isolate # 25 (mastitis),>8 µg/mL
same,MIC against Enterobacter species,Enterobacter species; isolate # 27 (mastitis),>8 µg/mL
same,MIC,Mycoplasma bovis,4 µg/mL
same,MIC,"Mycoplasma bovis; Mycoplasmopsis bovis, isolate # 248 (mastitis), read-out: MIC against Mycoplasma bovis",> 8 µg/mL
same,MIC,"Mycoplasma bovis; Mycoplasmopsis bovis, isolate # 249 (mastitis), read-out: MIC against Mycoplasma bovis",> 8 µg/mL
same,MIC,"Mycoplasma bovis; Mycoplasmopsis bovis, isolate # 250 (mastitis), read-out: MIC against Mycoplasma bovis",> 8 µg/mL
same,MIC,"Mycoplasma bovis; Mycoplasmopsis bovis, isolate # 251 (mastitis), read-out: MIC against Mycoplasma bovis",> 8 µg/mL
same,MIC,"Mycoplasma bovis; Mycoplasmopsis bovis, isolate # 252 (mastitis), read-out: MIC against Mycoplasma bovis",> 8 µg/mL
same,MIC,"Mycoplasma bovis; Mycoplasmopsis bovis, isolate # 253 (mastitis), read-out: MIC against Mycoplasma bovis",4 µg/mL
same,MIC,"Mycoplasma bovis; Mycoplasmopsis bovis, isolate # 254 (mastitis), read-out: MIC against Mycoplasma bovis",> 8 µg/mL
same,MIC,"Mycoplasma bovis; Mycoplasmopsis bovis, isolate # 255 (mastitis), read-out: MIC against Mycoplasma bovis",> 8 µg/mL
same,MIC,"Mycoplasma bovis; Mycoplasmopsis bovis, isolate # 256 (mastitis), read-out: MIC against Mycoplasma bovis",> 8 µg/mL
same,MIC,"Mycoplasma bovis; Mycoplasmopsis bovis, isolate # 257 (mastitis), read-out: MIC against Mycoplasma bovis",> 8 µg/mL
same,MIC,Mannheimia haemolytica; isolate # 158,4 µg/mL
same,MIC,Mannheimia haemolytica; isolate # 159,> 8 µg/mL
same,MIC,Mannheimia haemolytica; isolate # 160,4 µg/mL
same,MIC,Mannheimia haemolytica; isolate # 161,> 8 µg/mL
same,MIC,Mannheimia haemolytica; isolate # 162,2 µg/mL
same,MIC,Mannheimia haemolytica; isolate # 163,4 µg/mL
same,MIC,Mannheimia haemolytica; isolate # 164,> 8 µg/mL
same,MIC,Mannheimia haemolytica; isolate # 165,> 8 µg/mL
same,MIC,Mannheimia haemolytica; isolate # 166,1 µg/mL
same,MIC,Mannheimia haemolytica; isolate # 167,4 µg/mL
same,MIC against Serratia marcescens,Serratia marcescens; isolate # 68,>8
same,MIC against Serratia marcescens,Serratia marcescens; isolate # 69,>8
same,MIC against Serratia marcescens,Serratia marcescens; isolate # 70,>8
same,MIC against Serratia marcescens,Serratia marcescens; isolate # 71,>8
same,MIC against Serratia marcescens,Serratia marcescens; isolate # 72,>8
same,MIC against Serratia marcescens,Serratia marcescens; isolate # 73,>8
same,MIC against Serratia marcescens,Serratia marcescens; isolate # 74,>8
same,MIC against Serratia marcescens,Serratia marcescens; isolate # 75,>8
same,MIC against Serratia marcescens,Serratia marcescens; isolate # 76,>8
same,MIC against Serratia marcescens,Serratia marcescens; isolate # 77,>8
same,MIC against Staphylococcus pseudintermedius (+ MSRP),[1]; isolate # 128,0.25
same,MIC against Staphylococcus pseudintermedius (+ MSRP),[1]; isolate # 129,0.25
same,MIC against Staphylococcus pseudintermedius (+ MSRP),[1]; isolate # 130,0.25
same,MIC against Staphylococcus pseudintermedius (+ MSRP),[1]; isolate # 131,0.25
same,MIC against Staphylococcus pseudintermedius (+ MSRP),[1]; isolate # 132,0.25
same,MIC against Staphylococcus pseudintermedius (+ MSRP),[1]; isolate # 133,0.25
same,MIC against Staphylococcus pseudintermedius (+ MSRP),[1]; isolate # 134,0.25
same,MIC against Staphylococcus pseudintermedius (+ MSRP),[1]; isolate # 135,0.12
same,MIC against Staphylococcus pseudintermedius (+ MSRP),[1]; isolate # 136,0.25
same,MIC against Staphylococcus pseudintermedius (+ MSRP),[1]; isolate # 137,0.12
same,MIC against Staphylococcus pseudintermedius (+ MSRP),[1]; isolate # 138,>8
same,MIC against Staphylococcus pseudintermedius (+ MSRP),[1]; isolate # 139,0.25
same,MIC against Staphylococcus pseudintermedius (+ MSRP),[1]; isolate # 140,>8
same,MIC against Staphylococcus pseudintermedius (+ MSRP),[1]; isolate # 141,>8
same,MIC against Staphylococcus pseudintermedius (+ MSRP),[1]; isolate # 142,>8
same,MIC against Staphylococcus pseudintermedius (+ MSRP),[1]; isolate # 143,>8
same,MIC against Staphylococcus pseudintermedius (+ MSRP),[1]; isolate # 144,>8
same,MIC against Staphylococcus pseudintermedius (+ MSRP),[1]; isolate # 145,>8
same,MIC against Staphylococcus pseudintermedius (+ MSRP),[1]; isolate # 146,>8
same,MIC against Staphylococcus pseudintermedius (+ MSRP),[1]; isolate # 147,>8
same,MIC,Streptococcus uberis; isolate # 218,0.06 µg/mL
same,MIC,Streptococcus uberis; isolate # 219,0.5 µg/mL
same,MIC,Streptococcus uberis; isolate # 220,0.06 µg/mL
same,MIC,Streptococcus uberis; isolate # 221,1 µg/mL
same,MIC,Streptococcus uberis; isolate # 222,0.06 µg/mL
same,MIC,Streptococcus uberis; isolate # 223,0.06 µg/mL
same,MIC,Streptococcus uberis; isolate # 224,0.06 µg/mL
same,MIC,Streptococcus uberis; isolate # 225,2 µg/mL
same,MIC,Streptococcus uberis; isolate # 226,0.06 µg/mL
same,MIC,Streptococcus uberis; isolate # 227,2 µg/mL
same,MIC,"[2]; A. pleuro. (AC-1) ATTC 27090, read-out: MIC",8 µg/mL
same,MIC,"[2]; isolate # 237 (porcine lung, SRD), read-out: MIC against Actinobacillus pleuropneumoniae",2 µg/mL
same,MIC,"[2]; isolates # 228-231, 235 (porcine lung, SRD), read-out: MIC against Actinobacillus pleuropneumoniae",4 µg/mL
same,MIC,"[2]; isolates # 232-236 (porcine lung, SRD), read-out: MIC against Actinobacillus pleuropneumoniae",8 µg/mL
same,MIC,"[3]; Staphylococcus aureus, ATCC 29213 / MRSA, S. aureus (Sta-3) ATCC 29213",0.5 µg/mL
same,MIC against Staphylococcus aureus including MRSA,[3]; strain # 98,0.25
same,MIC against Staphylococcus aureus including MRSA,[3]; strain # 99,0.25
same,MIC against Staphylococcus aureus including MRSA,[3]; strain # 100,0.25
same,MIC against Staphylococcus aureus including MRSA,[3]; strain # 101,0.25
same,MIC against Staphylococcus aureus including MRSA,[3]; strain # 102,0.25
same,MIC against Staphylococcus aureus including MRSA,[3]; strain # 103,0.25
same,MIC against Staphylococcus aureus including MRSA,[3]; strain # 104,0.25
same,MIC against Staphylococcus aureus including MRSA,[3]; strain # 105,0.25
same,MIC against Staphylococcus aureus including MRSA,[3]; strain # 106,0.25
same,MIC against Staphylococcus aureus including MRSA,[3]; strain # 107,0.25
same,MIC against Staphylococcus aureus including MRSA,[3]; strain # 108,>8
same,MIC against Staphylococcus aureus including MRSA,[3]; strain # 109,1
same,MIC against Staphylococcus aureus including MRSA,[3]; strain # 110,>8
same,MIC against Staphylococcus aureus including MRSA,[3]; strain # 111,>8
same,MIC against Staphylococcus aureus including MRSA,[3]; strain # 112,0.5
same,MIC against Staphylococcus aureus including MRSA,[3]; strain # 113,>8
same,MIC against Staphylococcus aureus including MRSA,[3]; strain # 114,>8
same,MIC against Staphylococcus aureus including MRSA,[3]; strain # 115,>8
same,MIC against Staphylococcus aureus including MRSA,[3]; strain # 116,>8
same,MIC against Staphylococcus aureus including MRSA,[3]; strain # 117,>8
same,MIC against Staphylococcus aureus including MRSA,[3]; strain # 118,>8
same,MIC against Staphylococcus aureus including MRSA,[3]; strain # 119,>8
same,MIC against Staphylococcus aureus including MRSA,[3]; strain # 120,>8
same,MIC against Staphylococcus aureus including MRSA,[3]; strain # 121,>8
same,MIC against Staphylococcus aureus including MRSA,[3]; strain # 122,>8
same,MIC against Staphylococcus aureus including MRSA,[3]; strain # 123,>8
same,MIC against Staphylococcus aureus including MRSA,[3]; strain # 124,>8
same,MIC against Staphylococcus aureus including MRSA,[3]; strain # 125,>8
same,MIC against Staphylococcus aureus including MRSA,[3]; strain # 126,>8
same,MIC against Staphylococcus aureus including MRSA,[3]; strain # 127,>8
